This passage reports absorption maximum results from the Deep4Chem optical property database.

The data set in a line: solvent given as SMILES.

SMILES strings stand for the structures.

Turning to `CN(C)c1ccc(/C=C2\CCCC2=O)cc1`, the absorption maximum by setting is: (in CC#N) 380 nm; (in CC(C)=O) 379 nm; (in CC(C)O) 390 nm; (in CCCCCC) 357 nm; (in CCCCO) 392 nm; (in CCCO) 394 nm. Further, the absorption maximum runs as follows: (in CCO) 390 nm; (in CCOC(C)=O) 370 nm; (in CCOCC) 365 nm; (in CN(C)C=O) 383 nm; (in CO) 391 nm; (in CS(C)=O) 383 nm. The absorption maximum was determined as 373 nm (in Cc1ccccc1); 370 nm (in ClC(Cl)(Cl)Cl); 383 nm (in ClC(Cl)Cl); 383 nm (in ClCCl); 387 nm (in S=C=S); 380 nm (in c1ccccc1). The compound also displayed an absorption maximum (in c1ccncc1) of 384 nm.
Where the note is “in C1CCOC1”, `N#Cc1c(N2CCCCC2)cc(-c2ccccc2)c2c1Cc1ccccc1-2` came in with an absorption maximum of 358 nm.
Under “in CCO”, `C#Cc1ccc2ccc3oc(=O)cc(C)c3c2c1` yielded an absorption maximum of 362 nm.
Turning to `COc1ccc(-c2c3cc4cc(C)sc4cc3c(-c3ccc(OC)cc3)c3cc4cc(C)sc4cc23)cc1`, under “in ClCCl”, the absorption maximum was found to be 500 nm.
On to `CCN(CC)c1ccc2cc(-c3csc(NC(C)=O)c3C#N)c(=O)oc2c1`, for which the absorption maximum runs as follows: (in CO) 404 nm; (in CS(C)=O) 394 nm; (in Cc1ccccc1) 402 nm.
Compound `Clc1ccc(/C=C/c2ccc(-c3nc4c5cccnc5c5ncccc5c4[nH]3)cc2)cc1` displayed an absorption maximum (in C1CCOC1) of 376 nm, an absorption maximum (in CC#N) of 368 nm, an absorption maximum (in CO) of 360 nm and an absorption maximum (in ClCCl) of 377 nm.
Regarding `CC(C)(C)c1ccc(Oc2c3c4c(cc(Oc5ccc(C(C)(C)C)cc5)c5c6c(Oc7ccc(C(C)(C)C)cc7)c(Oc7ccc(C(C)(C)C)cc7)c7c8c(cc(Oc9ccc(C(C)(C)C)cc9)c(c(c2Oc2ccc(C(C)(C)C)cc2)c45)c86)C(=O)OC7=O)C(=O)OC3=O)cc1`, the absorption maximum (in ClC(Cl)Cl) is 571 nm.
In turn, `CCOC(=O)c1c2c3c(ccc(C)c3c3cc4c(cc13)[Si](C)(C)O[Si]4(C)C)N(C)C2=O` had an absorption maximum (in CC#N) of 380 nm.
`CN(C)c1ccc(C(=O)Nc2ccccc2)cc1`: the absorption maximum (in C1CCCCC1) is given as 307 nm, the absorption maximum (in C1CCOC1) amounted to 311 nm, the absorption maximum (in CC#N) was 314 nm and the absorption maximum (in CCOCC) amounted to 307 nm.
As to `N#Cc1nc(N(Cc2ccccc2Br)Cc2ccccc2Br)c(C#N)nc1N(Cc1ccccc1Br)Cc1ccccc1Br`, under “in ClC(Cl)Cl”, the absorption maximum came out at 485 nm.
Under “in C1CCCCC1”, `COc1ccc(-c2ccc(OC)cc2)cc1` returned an absorption maximum of 271.81 nm.
For `O=C([O-])c1c2ccccc2c(C(=O)[O-])c2ccccc12`, the absorption maximum (in CN(C)C=O) amounted to 400 nm.
The compound `CC(C)(C)c1ccc(-c2c(-c3ccc(-n4c5ccccc5c5ccccc54)cc3)cc(-c3ccc(-n4c5ccccc5c5ccccc54)cc3)c(-c3ccc(C(C)(C)C)cc3)c2-c2ccc(C(C)(C)C)cc2)cc1` yielded an absorption maximum (in C1CCOC1) of 341 nm.
`CCC1=C(CC)c2cccc3c2c(cc2nc4ccccc4nc23)O1` showed an absorption maximum (in ClCCl) of 501 nm.
Take `Cc1ccc(-n2c(C)ccc2C)cc1`: the absorption maximum was 234 nm (in CC#N) and 238 nm (in CCCCCC).
On to `N[C@@H](Cc1ccc(O)cc1)C(=O)O`, for which the absorption maximum (in O) is listed as 285 nm.
Turning to `Cc1cc(=O)oc2c3c4c(cc12)CCCN4CCC3`, the absorption maximum is 361 nm (in C1CCCCC1), 380 nm (in CC#N), 387 nm (in CCO) and 396 nm (in O).
Compound `c1ccc(-c2nc(-c3ccccc3)nc(-c3ccc(-n4c5ccccc5c5c6c(ccc54)C4(c5ccccc5-c5ccccc54)c4ccccc4-6)cc3)n2)cc1` displayed an absorption maximum (in Cc1ccccc1) of 374 nm.
Consider `CCCCCCN1C(=O)c2cccc3c(-c4ccc(-c5cc(-c6ccc(Cl)cc6)nn5-c5ccccc5)s4)ccc(c23)C1=O`, for which the absorption maximum (in ClCCl) amounted to 389 nm.
Under “in ClC(Cl)Cl”, `CC1(C)C(/C=C2\C(=O)C(/C=C3\Nc4ccccc4C3(C)C)=C2[O-])=[NH+]c2ccccc21` gave an absorption maximum of 654 nm.
Compound `O=S(=O)(c1cccc(N2c3ccccc3Oc3ccccc32)c1)c1cccc(N2c3ccccc3Oc3ccccc32)c1` yielded an absorption maximum (in C1CCOC1) of 317 nm, an absorption maximum (in Cc1ccccc1) of 308 nm and an absorption maximum (in ClC(Cl)Cl) of 315 nm.
Regarding `Fc1c(-c2nnc(-c3ccccc3)o2)c(-n2c3ccccc3c3ccccc32)c(F)c(-n2c3ccccc3c3ccccc32)c1-n1c2ccccc2c2ccccc21`, the absorption maximum (in Cc1ccccc1) came to 361 nm.
For `Cc1cc2ccccc2c2c1c1ccccc1n2-c1ccc(C#N)cc1`, under “in ClCCl”, the absorption maximum worked out at 303 nm.
As to `CC1=C2C=CC(c3ccccc3)=[N+]2[B-](F)(F)n2c1ccc2-c1ccccc1`, the absorption maximum (in ClCCl) is reported as 544 nm.
Compound `Cc1cc(C)c(B2c3cc(C(C)(C)C)ccc3-c3cccc4cc(C(C)(C)C)cc2c34)c(C)c1` had an absorption maximum (in C1CCCCC1) of 409 nm.
As to `CCC1=C(C)C2=Cc3cscc3B(O)N2C1=O`, the absorption maximum reads like this: (in CC#N) 350 nm; (in CCCCCC) 351 nm; (in CO) 355 nm; (in CS(C)=O) 352 nm; (in ClC(Cl)Cl) 355 nm.
`C(=C\c1ccc(N(c2ccccc2)c2ccccc2)cc1)/c1ccc(-c2cc(-c3ccccn3)nc(-c3ccccn3)c2)cc1`: the absorption maximum reads like this: (in C1CCOC1) 382 nm; (in C1COCCO1) 382 nm; (in CC#N) 379 nm; (in CCO) 379 nm; (in ClCCl) 383 nm.
As for `CCCCOc1c(C=C2C=Cc3ccccc3N2C)c(=O)c1=O`, the absorption maximum (in CCO) is on record as 465 nm.
Under “in ClCCl”, `CC(C)[Si](C#Cc1c2nsnc2c(C#C[Si](C(C)C)(C(C)C)C(C)C)c2nc3c4ccccc4c(=O)c4ccccc4c3nc12)(C(C)C)C(C)C` had an absorption maximum of 561 nm.
Turning to `COc1ccc(N(c2ccccc2)c2ccc(OC)cc2)cc1`, under “in Cc1ccccc1”, the absorption maximum amounted to 300 nm.
The same measure, in the same setting: to `COCCC1=Cc2nc1ccc1[nH]c(cc1CCOC)c1nc(c(OC(C)=O)cc3[nH]c2cc3CCOC)C(CCOC)=C1` belongs 647 nm; to `CC(C)(C)c1ccccc1N(c1ccccc1)c1ccc(S(=O)(=O)c2ccc(S(=O)(=O)c3ccc(N(c4ccccc4)c4ccccc4C(C)(C)C)cc3)cc2)cc1`, 348 nm.
Compound `CCCCCCCCCCCCC(CCCCCCCCCC)Cn1c2cc(/C=C/c3nc4ccccc4s3)c3cccc4c5cccc6c(/C=C/c7nc8ccccc8s7)cc1c(c65)c2c34` (stereo unspecified) gave an absorption maximum (in C1CCCCC1) of 517 nm, an absorption maximum (in CC#N) of 516 nm, an absorption maximum (in Cc1ccccc1) of 524 nm and an absorption maximum (in ClCCl) of 521 nm.
`F[B-]1(F)OC(c2ccc(C(F)(F)F)cc2)=Cc2ccc3ccccc3[n+]21`: where the note is “in ClC(Cl)Cl”, the absorption maximum was found to be 424 nm.
`CCCCCCCc1ccc(C2=[N+]3C(=C4c5cc(OCC(CC)CC)c(-c6ccc(CCCCCCC)o6)n5[B-](F)(F)[n+]5nnn(c54)[B-]3(F)F)C=C2OCC(CC)CC)o1` had an absorption maximum (in C1CCOC1) of 811 nm and an absorption maximum (in ClCCl) of 826 nm.
For the compound `CCCCCCCCCCCCC(CCCCCCCCCC)Cn1c2cc(/C=C/C=C/c3nc4ccccc4s3)c3cccc4c5cccc6c(/C=C/C=C/c7nc8ccccc8s7)cc1c(c65)c2c34` (stereo unspecified), the absorption maximum is 530 nm (in C1CCCCC1), 528 nm (in CC#N), 538 nm (in Cc1ccccc1) and 538 nm (in ClCCl).
As for `OC1(c2ccc(-c3cccs3)s2)CCCCC1`, the absorption maximum is reported as 312 nm (in C1CCOC1); 309 nm (in CC#N); 308 nm (in CCCCCC); 309 nm (in CCO); 317 nm (in OCCOCCO); 315 nm (in c1ccncc1).
Compound `N#Cc1c(N2CCCC2)cc(-c2ccccc2)c2c1-c1ccccc1C2` had an absorption maximum (in C1CCOC1) of 353 nm.
For `CC[N+](CC)=c1ccc2c(-c3ccccc3C(=O)O)c3oc4cc(N)ccc4c3oc-2c1`, the absorption maximum runs as follows: (in CCO) 572 nm; (in ClCCl) 581 nm; (in O) 581 nm.
For `CC(C)(C)c1ccc(C(C)(C)C)c(N2C(=O)c3cccc4c(-c5ccc(-c6ccc(N(c7ccccc7)c7ccccc7)cc6)s5)ccc(c34)C2=O)c1`, the absorption maximum runs as follows: (in CO) 447 nm; (in CS(C)=O) 445 nm; (in Cc1ccccc1) 440 nm.
`CCC(CC)n1c2ccccc2c2cc3c(cc21)c1ccccc1n3C(CC)CC`: the absorption maximum (in ClC(Cl)Cl) was determined as 419 nm.
In turn, `CCN(CC)c1ccc(/C=C/c2ccc(-c3ccc(/C=C/c4ccc(N(CC)CC)cc4)s3)s2)cc1` had an absorption maximum (in Cc1ccccc1) of 467.9 nm.
In turn, `c1cnc(-c2c3ccccc3c(-c3ncccn3)c3ccccc23)nc1` had an absorption maximum (in CCO) of 389 nm and an absorption maximum (in ClCCl) of 389 nm.
As for `COc1ccc2cc(C3=[N+]4C(=Nc5c(-c6ccccc6)cc(-c6ccc7cc(OC)ccc7c6)n5[B-]4(F)F)C(c4ccccc4)=C3Br)ccc2c1`, the absorption maximum reads like this: (in ClC(Cl)Cl) 695 nm; (in ClCCl) 695 nm.
Where the note is “in O”, `[NH3+]C(Cc1ccccc1)C(=O)[O-]` (stereo unspecified) yielded an absorption maximum of 258 nm.
Compound `CN(C)c1ccc(C(=O)Nc2cccc(Br)c2)cc1` returned an absorption maximum (in C1CCCCC1) of 310 nm, an absorption maximum (in C1CCOC1) of 317 nm, an absorption maximum (in CC#N) of 318 nm and an absorption maximum (in CCOCC) of 312 nm.
With `c1cc2ccc3cccc4ccc(c1)c2c34`, the absorption maximum runs as follows: (in C1CCCCC1) 334 nm; (in CC#N) 335 nm; (in CCCCCC) 330 nm; (in CCO) 334 nm; (in CCOC(C)=O) 335 nm; (in CO) 330 nm. The absorption maximum runs as follows: (in Cc1ccccc1) 362 nm; (in ClC(Cl)Cl) 337 nm; (in ClCCl) 333 nm.
